# Source: the supplement of paper PMC3974653
# Counter-ions that a name gives are not always drawn.
# System: MTT (mouse pheochromocytoma)
# Test: IC50 of cell viability (ATP content)
# Conditions: (24 or 48 h)
# In short: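 MTT mouse pheochromocytoma cells (5 µl of 200,000 cells/ml per well, white 1536-well plates, DMEM with 5% FBS and 1% horse serum) were cultured overnight at 37°C, 5% CO2. They then received 23 nl library compound in DMSO by pintool at 8 concentrations (final 0.5 nM to 46 µM) for 24 or 48 hrs. CellTiter-Glo ATP luminescence was read after 15 minutes. Signals were normalised to positive-control (100% inhibition) and DMSO (0%) wells, and IC50 came from a four-parameter logistic fit.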
row,IC50 of cell viability [µM],SMILES
1,> 46,O=C1NC(=O)C(c2ccccc2)(c2ccccc2)N1 [PHENYTOIN]
2,> 46,Cc1ncc([N+](=O)[O-])n1C[C@H](O)CCl [Ornidazole]
3,> 46,Cc1ccc2c(Br)cc(Br)c(O)c2n1 [Broquinaldol]
4,> 46,CCOC(=O)C/1=C(COCCN)/N\C(=C(C1C2=C(Cl)C=CC=C2)\C(=O)OC)C (stereo not given) [Amlodipine besylate]
5,> 46,C=Cc1ccc(S(=O)(=O)[O-])cc1
6,> 46,COC(=O)C1C2CC3c4[nH]c5cc(OC)ccc5c4CCN3CC2CC(OC)C1OC (stereo not given) [METOSERPATE HYDROCHLORIDE]
7,> 46,CCC(C(=O)OCCN(CC)CC)c1ccccc1 (stereo not given) [BUTETAMATUM]
8,> 46,Cl/C(=C\n1cncn1)c1ccc(Cl)cc1Cl [Loreclezole hydrochloride]
9,> 46,O=C(O)c1ccc([S+](=O)([O-])N(Cl)Cl)cc1 [HALAZONE]
10,> 46,CCCN(CCC)[S+](=O)([O-])c1ccc(C(=O)O)cc1 [Probenecid]
11,> 46,CCN(CC)CCNC(C(=O)OCCC(C)C)c1ccccc1 (stereo not given) [ACAMYLOPHENINE HYDROCHLORIDE]
12,> 46,COc1ccc(O)cc1 [MEQUINOL]
13,> 46,NNc1nncc2ccccc12 [Hydralazine hydrochloride]
14,> 46,CC(C)(C)CC(C)(C)c1ccc(O)c(Cc2ccc(Cl)cc2Cl)c1 [CLOFOCTOL]
15,> 46,CCOC(=O)C(CCc1ccccc1)NC1CSC(c2cccs2)CN(CC(=O)O)C1=O (stereo not given) [TEMOCAPRIL HYDROCHLORIDE]
16,> 46,CCOC(=O)c1cnc2c(cnn2CC)c1NN=C(C)C.Cl [Etazolate hydrochloride]
17,> 46,F[Si-2](F)(F)(F)(F)F [SODIUM HEXAFLUOROSILICATE]
18,> 46,CCCCCCCCCCCCCCCCOP(=O)([O-])OCC[N+](C)(C)C [MILTEFOSINE]
19,> 46,NC[C@@H]1O[C@@H](O[C@H]2[C@@H](O)[C@H](O[C@@H]3O[C@@H](CO)[C@H](O)[C@H](N)[C@@H]3O)[C@@H](N)C[C@H]2N)[C@H](O)[C@H](O)[C@@H]1O [Kanamycin A sulfate]

row,IC50 of cell viability [µM],SMILES
1,> 46,OC(=O)CC/1=N/N(CC2=CC=C(Br)C=C2F)C(=O)C3=CC=CC=C13 [Statil]
2,> 46,N=C(N)NCC1COc2ccccc2O1 (stereo not given) [Guanoxano]
3,> 46,CCOc1ccc(NC(=O)CC(C)O)cc1 (stereo not given) [Bucetin]
4,> 46,C[C@]12CC[C@@H]3c4ccc(OC(=O)c5ccccc5)cc4CC[C@H]3[C@@H]1CC[C@@H]2O [ESTRADIOL BENZOATE]
5,> 46,O=C(CCCN1CCC(O)(c2ccc(Cl)cc2)CC1)c1ccc(F)cc1 [HALOPERIDOL]
6,> 46,O=C(CS(=O)Cc1ccco1)NC/C=C/COc1cc(CN2CCCCC2)ccn1 (stereo not given) [LAFUTIDINE]
7,> 46,"CC(=O)Oc1cccc(C)c1 [CRESYL ACETATE, M-]"
8,> 46,C[C@@H]1COC2=C3N1\C=C(\C(O)=O)C(=O)C3=CC(=C2N4CCN(C)CC4)F [Ofloxacin]
9,> 46,NCC1O[C@@H](OC2C(N)C[C@H](N)[C@@H](O[C@H]3OC(CO)C(O)C(N)C3O)C2O)C(N)C(O)C1O (stereo not given in full) [KANAMYCIN B]
10,> 46,Cc1ccc2nc(N)nc(O)c2c1Sc1ccncc1 [NOLATREXED]
11,> 46,N[S+](=O)([O-])c1cc2c(cc1Cl)NCN[S+]2(=O)[O-] [HYDROCHLOROTHIAZIDE]
12,> 46,CN[C@H]1[C@H](O[C@@H]2O[C@@H](CO)[C@H](N)[C@H](O)[C@@H]2O)O[C@H]2C[C@@H](N)[C@@H](O[C@H]3[C@H](O)[C@H](O)[C@H](N)C[C@@H]3N)O[C@@H]2[C@H]1O [Apramycin]
13,> 46,NC(=O)CCCCC1CCSS1 (stereo not given) [THIOCTIC ACID AMIDE]
14,> 46,CN1CCN(c2cc3c(nn2)Oc2ccccc2N3C)CC1 [Pipofezine]
15,> 46,CCCC(=O)O[C@@]1(CC[C@H]2C3C[C@H](F)\C4=C\C(=O)\C=C/C4(C)[C@@]3(F)[C@@H](O)CC12C)C(=O)COC(C)=O (stereo not given in full) [DIFLUPREDNATE]
16,> 46,O=C1[C@@H]2C[C@@H]3C[C@H]1C[C@@](O)(C3)C2 [5-Hydroxy-2-adamantanone]
17,> 46,CCN(CC)CCOCCOC(=O)C1(c2ccccc2)CCCC1 [CARBETAPENTANE]
18,> 46,Nc1cc(C(Cl)=C(Cl)Cl)c([S+](N)(=O)[O-])cc1[S+](N)(=O)[O-] [Clorsulon]
19,> 46,[O-]Cl [Sodium hypochlorite]

row,IC50 of cell viability [µM],SMILES
1,> 46,O=C(O)Cc1ccc(-c2ccccc2)cc1 [Felbinac]
2,> 46,Cc1ccccc1C(=O)Nc1ccc(C(=O)N2CCCC(O)c3cc(Cl)ccc32)c(C)c1 (stereo not given) [TOLVAPTAN]
3,> 46,CO[C@@]1(NC(=O)CSC[C@@H](N)C(=O)O)C(=O)N2C(C(=O)O)=C(CSc3nnnn3C)CS[C@@H]21 [CEFMINOX SODIUM]
4,> 46,CC(CCC(=O)O)C1CCC2C3C(=O)C[C@@H]4CC(=O)CC[C@@]4(C)C3CC(=O)[C@]12C (stereo not given in full) [DEHYDROCHOLIC ACID]
5,> 46,COc1cc2c(cc1OC)CC(=O)N(CCCN(C)C[C@H]1Cc3cc(OC)c(OC)cc31)CC2 [IVABRADINE HYDROCHLORIDE]
6,> 46,NC(=O)NC(=O)Cc1ccccc1 [PHENACEMIDE]
7,> 46,"Nc1ncnc(Nc2ccc(Cl)cc2)n1 [2-AMINO-4-(4-CHLOROANILINO)-1,3,5-TRIAZINE]"
8,> 46,CC1(C)O[C@@H]2C[C@H]3[C@@H]4CCC/5=C/C(=O)/C=C\[C@]5(C)[C@@]4(F)[C@@H](O)C[C@]3(C)[C@@]2(O1)C(=O)CO [Triamcinolone acetonide]
9,> 46,O=C1CC[C@H](C(=O)N2CCCCC2)N1 [FASORACETAM HYDRATE]
10,> 46,CCC(C)C1OC2(C=CC1C)CC1CC(CC=C(C)C(OC3CC(OC)C(OC4CC(OC)C(NC(C)=O)C(C)O4)C(C)O3)C(C)C=CC=C3COC4C(O)C(C)=CC(C(=O)O1)C34O)O2 (stereo not given) [Eprinomectin B1a]
11,> 46,ClC1=CC(=CC=C1)N2CCN(CCCN3\N=C4\C=C/C=C\N4C3=O)CC2 [Trazodone hydrochloride]
12,> 46,Nc1ccc([S+](=O)([O-])Nc2ccccc2)cc1 [Sulfabenz]
13,> 46,COc1ccccc1N1CCN(CC(O)COc2cccc3ccccc23)CC1 (stereo not given) [NAFTOPIDIL]
14,> 46,CC(=O)Oc1ccc(C(c2ccc(OC(C)=O)cc2)c2ccccn2)cc1 [Bisacodyl]
15,> 46,CCN(CC)CCOc1ccc2c(c1)C(=O)c1cc(OCCN(CC)CC)ccc1-2 [TILORONE]
16,> 46,CCN(CC)Cc1cc(Nc2ccnc3cc(Cl)ccc23)ccc1O.Cl.Cl.O.O [Amodiaquin dihydrochloride dihydrate]
17,> 46,COc1cc(C(=S)N2CCOCC2)ccc1O [Vanitiolida]
18,> 46,NC(=O)c1ncn(C2OC(CO)C(O)C2O)c1N (stereo not given) [AICAR]

row,SMILES,IC50 of cell viability [µM]
1,COc1cc(CCN)cc(OC)c1OC [Mescaline],> 46
2,CC(C)(C)C(O)C(Oc1ccc(Cl)cc1)n1cncn1 (stereo not given) [Triadimenol],> 46
3,CC1(C)S[C@@H]2[C@H](N)C(=O)N2[C@@H]1C(=O)O [6-AMINOPENICILLANIC ACID],> 46
4,NCc1cccnc1 [Picolamina],> 46
5,"COc1cc(OC)c(OC)cc1C=O [2,4,5-Trimethoxybenzaldehyde]",> 46
6,O=C(NC(O)C(Cl)(Cl)Cl)NC(O)C(Cl)(Cl)Cl (stereo not given) [Dicloralurea],> 46
7,Clc1ccc(C2(Cn3cncn3)OCCO2)c(Cl)c1 [Azaconazole],> 46
8,CC[n+]1c(-c2ccccc2)c2cc(N)ccc2c2ccc(N)cc21 [Ethidium bromide],> 46
9,Clc1ccc([C@@H](OCCN2CCCCC2)c2ccccc2)cc1 [Cloperastine hydrochloride],> 46
10,CCCCCCC(=O)O[C@H]1CC[C@H]2[C@@H]3CCC4CC(=O)\C=C(C)/[C@]4(C)[C@H]3CC[C@]12C (stereo not given in full) [METENOLONE ENANTHATE],> 46
11,O=C1C[N+]([O-])=C(c2ccccc2)c2cc(Cl)ccc2N1 [Demoxepam],> 46
12,O=C(NCNC(=O)NC1C(=O)NC(=O)N1CO)NC1C(=O)NC(=O)N1CO (stereo not given) [Imidazolidinyl urea],> 46
13,CN1CCN(C(=O)O[C@H]2c3nccnc3C(=O)N2c2ccc(Cl)cn2)CC1 [Eszopiclone],> 46
14,CC(Cc1ccccc1)NCc1ccccc1Cl (stereo not given) [CLOBENZOREX],> 46
15,CN[S+](=O)([O-])Cc1ccc2[nH]cc(CCN(C)C)c2c1 [SUMATRIPTAN],> 46
16,Cc1ccc(-c2nc3ccc(C)cn3c2CC(=O)N(C)C)cc1 [ZOLPIDEM],> 46
17,CC1=NN=C2C\N=C(C3=CC=CC=C3Cl)/C4=C(SC(=C4)CCC(=O)N5CCOCC5)[N]12 [Apafant],> 46
18,"O=[N+]([O-])c1c(Cl)c(Cl)cc(Cl)c1Cl [2,3,5,6-Tetrachloronitrobenzene]",> 46
19,OC1\N=C(C2=CC=CC=C2)/C3=CC(=CC=C3NC1=O)Cl (stereo not given) [(?)-Oxazepam],> 46
